Melting point data for one compound are collected here from patent publication US20040180938A1, “Novel butadiene derivatives, process for preparation of the same and intermediates for the synthesis thereof” (priority 2001, published 2004).

The melting point is the temperature of the solid-liquid transition.

Structures are written as SMILES.

As to `COC(=O)C(=C(/C)c1ccc(C(=O)O)cc1)/C(=C\c1cccc(OC)c1)C(=O)Nc1ccnc(C)c1.Cl`, the melting point was 232 °C (dec.).
